The values below come from ChEMBL document CHEMBL1201862, “PubChem BioAssay data set” (2004).

Test systems include A549; MCF7; SF-268; Hs-578T; T47D; UO-31; MDA-MB-435; CCRF-CEM; ACHN; Malme-3M; HT-29; NCI-H460; IGROV-1; M14; SK-MEL-28; PC-3; HOP-62; MDA-N; A498.
Common to all, as to test: NCI-60 cell line screen, 48 h

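Method: 48-hour compound exposure of cells in 96-well plates, five concentrations, linear interpolation of endpoints. At the GI50, growth is halved.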 Activity calls are given as the source filed them. No stated cut-off is given here; in the data, active = GI50 up to about 1.1 µM and inactive = higher.

For `C(=N\N=C1NCCCCN1)/c1ccc2ccccc2c1`, the GI50 in the assay on A549 was 50.2 µM (inactive); with MCF7 it was 29.4 µM (inactive); in the assay with SF-268 it was 45.3 µM (inactive); with Hs-578T it was 92.9 µM (inactive); in the assay on T47D it was 18.4 µM (inactive); in the assay on UO-31 it was 36.8 µM (inactive). The GI50 in the assay with MDA-MB-435 was 17.2 µM (inactive); in the assay with CCRF-CEM, 33.7 µM (inactive); in the assay on ACHN, 45.4 µM (inactive); in the assay with Malme-3M, 16.3 µM (inactive); in the assay with HT-29 it was 22.8 µM (inactive); in the assay with NCI-H460, 22.3 µM (inactive). Besides, the GI50 in the assay on IGROV-1 is 40.9 µM (inactive); with M14, 14.5 µM (inactive); in the assay with SK-MEL-28 it was 21.3 µM (inactive); with PC-3, 29.6 µM (inactive); with HOP-62 it was 42.2 µM (inactive).

`O=C(O)c1nc2ccc(C(F)(F)F)cc2nc1NCc1ccc(Cl)c(Cl)c1`: the GI50 in the assay on A549 is 16.1 µM (inactive); in the assay on MCF7, 17.8 µM (inactive); in the assay with T47D, 16.6 µM (inactive); in the assay with MDA-N, 19.6 µM (inactive); in the assay on UO-31, 13.4 µM (inactive); in the assay on MDA-MB-435, 15.6 µM (inactive). The GI50 in the assay on CCRF-CEM was 23.4 µM (inactive); with ACHN, 15.4 µM (inactive); in the assay on HT-29, 15.2 µM (inactive); in the assay with NCI-H460, 16 µM (inactive); in the assay with IGROV-1, 13.9 µM (inactive); in the assay with M14 it was 17.8 µM (inactive). For the same compound, the GI50 in the assay with SK-MEL-28 is 17.6 µM (inactive); with PC-3, 15.3 µM (inactive); in the assay with HOP-62, 14.8 µM (inactive); with A498 it was 17.5 µM (inactive).

With `CS(=O)(=O)Nc1ccc2c(c1)N(S(C)(=O)=O)CC2CCl` (stereo not given), the GI50 in the assay with A549, in the assay on MCF7, with SF-268, in the assay with Hs-578T, in the assay on T47D and in the assay with UO-31 was > 100 µM (inactive) each time. For the same compound, the GI50 in the assay on MDA-MB-435, with CCRF-CEM, in the assay on ACHN, with Malme-3M, with HT-29 and with NCI-H460 was > 100 µM (inactive) in each case. In addition, the GI50 in the assay with IGROV-1, in the assay with SK-MEL-28, in the assay with PC-3, with HOP-62 and in the assay on A498 was > 100 µM (inactive) each time.

As for `COc1cc2c(cc1C)NC(=O)/C2=C/c1cccnc1`, the GI50 in the assay on MCF7 is 5.74 µM (inactive); in the assay with SF-268, 15.6 µM (inactive); with Hs-578T, 27.4 µM (inactive); with T47D, 2.84 µM (inactive); in the assay with MDA-MB-435 it was 12.9 µM (inactive); with CCRF-CEM it was 7.01 µM (inactive). Besides, the GI50 in the assay with ACHN is 11.9 µM (inactive); in the assay with Malme-3M it was 16.4 µM (inactive); with HT-29, 17.7 µM (inactive); in the assay with NCI-H460 it was 9.02 µM (inactive); with M14, 14 µM (inactive); in the assay on SK-MEL-28 it was 45.9 µM (inactive). For the same compound, the GI50 with PC-3 was 17.9 µM (inactive); in the assay on HOP-62, 11.7 µM (inactive); with A498, 10.8 µM (inactive).

For the compound `CCCCCCc1cc2cc(C(=O)Nc3cccc(C(F)(F)F)c3)c(=N)oc2cc1O`, the GI50 in the assay on A549 is 2.06 µM (inactive); in the assay with MCF7, 1.62 µM (inactive); in the assay on SF-268, 0.944 µM (active); in the assay with Hs-578T it was 0.998 µM (active); in the assay on T47D, 0.316 µM (active); with UO-31, 3.14 µM (inactive). Further, the GI50 was 2 µM (inactive) in the assay with MDA-MB-435; 0.933 µM (active) in the assay with CCRF-CEM; 1.56 µM (inactive) in the assay on ACHN; 1.17 µM (inactive) in the assay on Malme-3M; 5.96 µM (inactive) in the assay on HT-29; 0.436 µM (active) with NCI-H460. For the same compound, the GI50 is 1.19 µM (inactive) in the assay on IGROV-1; 2.29 µM (inactive) in the assay with M14; 2.57 µM (inactive) in the assay on SK-MEL-28; 3.34 µM (inactive) in the assay with PC-3; 1.9 µM (inactive) with HOP-62; 2.92 µM (inactive) with A498.

In the case of `CC1(C)CC(=O)C2=C(C1)OC1(CC2c2ccc(Cl)cc2)CC(c2ccc(Cl)cc2)C2=C(CC(C)(C)CC2=O)O1` (stereo not given), the GI50 is 13.6 µM (inactive) with A549; 12 µM (inactive) with MCF7; 17.9 µM (inactive) in the assay with SF-268; 16.5 µM (inactive) in the assay on Hs-578T; > 10 µM (inactive) in the assay with T47D; 13.6 µM (inactive) in the assay on UO-31. Moreover, the GI50 with MDA-MB-435 is 8.53 µM (inactive); with CCRF-CEM it was 15.5 µM (inactive); in the assay on ACHN, 18.5 µM (inactive); in the assay on Malme-3M, 15.3 µM (inactive); in the assay with HT-29, 28.2 µM (inactive); in the assay with NCI-H460, 14.3 µM (inactive). The GI50 in the assay on IGROV-1 is 12.5 µM (inactive); in the assay on M14, 23.1 µM (inactive); in the assay on SK-MEL-28, 15.2 µM (inactive); with PC-3 it was 18.2 µM (inactive); with HOP-62 it was 15.6 µM (inactive); in the assay on A498 it was 16 µM (inactive).

Take `C[C@@H](CCO)OC1OC(COC(=O)C(C)(C)C)C(OC(=O)C(C)(C)C)C(OC(=O)C(C)(C)C)C1OC(=O)C(C)(C)C` (stereo not given in full): the GI50 in the assay with A549 is 14.1 µM (inactive); in the assay with MCF7, 15.1 µM (inactive); in the assay on SF-268, 50.6 µM (inactive); in the assay with Hs-578T it was 20.7 µM (inactive); in the assay on T47D it was > 100 µM (inactive); with MDA-MB-435, 34.5 µM (inactive). Further, the GI50 with CCRF-CEM was 33.7 µM (inactive); in the assay with ACHN, 34.2 µM (inactive); in the assay on HT-29, 13.6 µM (inactive); in the assay on NCI-H460, 16.1 µM (inactive); in the assay with IGROV-1 it was 28.2 µM (inactive); with M14, 56.5 µM (inactive). Also, the GI50 in the assay with SK-MEL-28 was 21.9 µM (inactive); in the assay with PC-3, 22.2 µM (inactive); with HOP-62 it was 85.5 µM (inactive); in the assay on A498 it was > 100 µM (inactive).

`Cc1n[nH]c(=O)n1/N=C/c1ccc(Cl)cc1`: the GI50 is 61.2 µM (inactive) with A549; 44.9 µM (inactive) with SF-268; 35.6 µM (inactive) with T47D; > 100 µM (inactive) with MDA-N; 61.1 µM (inactive) in the assay with UO-31; > 100 µM (inactive) in the assay on MDA-MB-435. Moreover, the GI50 is 31.1 µM (inactive) with CCRF-CEM; > 100 µM (inactive) in the assay with ACHN; 59.7 µM (inactive) in the assay with NCI-H460; > 100 µM (inactive) with M14; > 100 µM (inactive) in the assay on SK-MEL-28; 32.5 µM (inactive) with HOP-62. Also, the GI50 in the assay with A498 was 40 µM (inactive).

`CCOC(=O)Nn1c(C)nnc1CC#N`: the GI50 with A549, in the assay with MCF7, in the assay on SF-268, with Hs-578T, in the assay with T47D and in the assay on UO-31 was > 100 µM (inactive) each time. The GI50 in the assay on ACHN, in the assay on Malme-3M, in the assay on HT-29, in the assay on NCI-H460, in the assay on IGROV-1 and with M14 was > 100 µM (inactive) throughout. Besides, the GI50 in the assay with SK-MEL-28, in the assay on PC-3 and in the assay with HOP-62 was > 100 µM (inactive) each time.
